US12180473B2, “Chimeric RNA-driven genomic rearrangement in mammalian cells” (priority 2018, dated 2024)

Experiments:
TMPRSS2 mRNA = details: LNCaP cells
TMPRSS2-ERG fusion [1] = test system: TMPRSS2-ERG fusion
ERG mRNA = assay: RT-PCR of endogenous ERG mRNA in LNCaP cells
TMPRSS2-ERG fusion [2] = test system: TMPRSS2-ERG fusion; remark: listed apart in the source
AZI1 RNA = details: LNCaP cells

## C[C@]12CCC(=O)C[C@@H]1CC[C@@H]1[C@@H]2CC[C@]2(C)[C@@H](O)CC[C@@H]12 [DHT, 5α-Androstan-17β-ol-3-one]
TMPRSS2 mRNA
  TMPRSS2 mRNA expression: upregulated
TMPRSS2-ERG fusion [1]
  TMPRSS2-ERG fusion transcript in PNT1A cells with DHT alone: no detectable fusion transcripts
ERG mRNA; presence or absence of DHT or antisense-5
  endogenous ERG mRNA (three-rounds of nested RT-PCR): not detected
ERG mRNA; wide range of DHT, presence or absence of antisense-5
  endogenous ERG mRNA (RT-PCR): not detected
TMPRSS2-ERG fusion [2]
  DHT concentration at which fusion induction is detectable: ~0.6 µM
  DHT concentration at which fusion induction reaches its maximum: 1.5 µM
AZI1 RNA
  endogenous AZI1 RNA expression: upregulated
